# According to patent US20240368169A1 (priority 2021, published 2024):
# What was measured:
# [1] = biological target: recombinant poly(ADP-ribose) polymerase 1 (PARP1) (Homo sapiens, UniProt P09874); experiment: biochemical; details: inhibition of PARP1 enzyme activity, chemiluminescence
# MDA-MB-436 cells = experiment: Growth inhibition assay against BRCA mutant human breast cancer MDA-MB-436 cell line (CCK-8, 7 days); assay type: cell-based
# [2] = biological target: recombinant poly(ADP-ribose) polymerase 2 (PARP2) (Homo sapiens, UniProt Q9UGN5); experiment: biochemical; details: inhibition of PARP2 enzyme activity, chemiluminescence
# recombinant poly(ADP-ribose) polymerase 2 (PARP2), sequence (Q9UGN5 whole entry): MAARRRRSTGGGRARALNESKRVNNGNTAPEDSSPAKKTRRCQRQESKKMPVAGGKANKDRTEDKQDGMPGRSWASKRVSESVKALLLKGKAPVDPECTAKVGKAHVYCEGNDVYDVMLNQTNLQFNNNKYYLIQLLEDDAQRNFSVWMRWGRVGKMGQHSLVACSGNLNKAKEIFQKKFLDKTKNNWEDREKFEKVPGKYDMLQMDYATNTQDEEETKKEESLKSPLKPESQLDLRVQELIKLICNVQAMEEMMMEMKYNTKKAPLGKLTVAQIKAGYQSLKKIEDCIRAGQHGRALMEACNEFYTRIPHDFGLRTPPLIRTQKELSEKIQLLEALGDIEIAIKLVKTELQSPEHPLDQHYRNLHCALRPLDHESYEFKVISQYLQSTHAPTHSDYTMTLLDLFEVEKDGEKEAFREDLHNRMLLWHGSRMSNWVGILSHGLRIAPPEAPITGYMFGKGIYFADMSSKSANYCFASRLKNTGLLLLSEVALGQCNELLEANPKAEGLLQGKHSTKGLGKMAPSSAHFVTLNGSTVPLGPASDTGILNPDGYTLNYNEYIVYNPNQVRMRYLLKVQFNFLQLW
# recombinant poly(ADP-ribose) polymerase 1 (PARP1), sequence (P09874 whole entry): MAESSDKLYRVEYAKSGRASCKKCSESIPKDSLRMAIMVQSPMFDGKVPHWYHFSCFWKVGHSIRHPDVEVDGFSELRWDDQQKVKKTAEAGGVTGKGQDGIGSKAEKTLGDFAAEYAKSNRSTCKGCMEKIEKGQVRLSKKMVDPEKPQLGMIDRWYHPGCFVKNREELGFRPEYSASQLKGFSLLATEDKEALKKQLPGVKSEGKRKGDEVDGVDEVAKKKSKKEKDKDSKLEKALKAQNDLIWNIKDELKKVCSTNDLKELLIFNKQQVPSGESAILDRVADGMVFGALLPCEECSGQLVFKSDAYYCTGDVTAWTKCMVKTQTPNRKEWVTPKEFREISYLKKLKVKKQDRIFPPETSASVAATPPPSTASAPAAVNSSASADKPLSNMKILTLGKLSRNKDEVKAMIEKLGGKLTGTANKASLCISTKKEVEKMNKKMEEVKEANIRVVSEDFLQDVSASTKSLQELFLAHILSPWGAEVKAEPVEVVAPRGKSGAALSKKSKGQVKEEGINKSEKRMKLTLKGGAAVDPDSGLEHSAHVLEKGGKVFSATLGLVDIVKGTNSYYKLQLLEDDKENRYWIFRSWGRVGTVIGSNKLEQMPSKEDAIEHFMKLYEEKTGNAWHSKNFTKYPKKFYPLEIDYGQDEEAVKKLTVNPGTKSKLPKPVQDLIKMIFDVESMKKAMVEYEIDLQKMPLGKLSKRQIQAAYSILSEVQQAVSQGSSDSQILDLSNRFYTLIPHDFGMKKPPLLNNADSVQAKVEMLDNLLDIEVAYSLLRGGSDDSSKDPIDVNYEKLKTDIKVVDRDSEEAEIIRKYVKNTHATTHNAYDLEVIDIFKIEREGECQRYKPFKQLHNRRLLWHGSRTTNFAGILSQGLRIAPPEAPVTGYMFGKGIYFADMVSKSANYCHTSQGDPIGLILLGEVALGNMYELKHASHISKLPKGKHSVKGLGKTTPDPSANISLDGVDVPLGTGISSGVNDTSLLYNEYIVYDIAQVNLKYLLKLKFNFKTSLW
Compound,IC50 [1],IC50 (MDA-MB-436 cells),IC50 [2]
"CNC(=O)c1ccc(N2CCN(Cc3ccc4c5c(c(=O)[nH]c4c3)COC5)CC2)c(Cl)n1 [Example 3, 7-((4-(2-chloro-6-(methylcarbamoyl)pyridin-3-yl)piperazin-1-yl)methyl)-3,5-dihydrofuro[3,4-c]quinolin-4(1H)-one]",1.33 nM,5.01 nM,467 nM
"CNC(=O)c1ccc(N2CCN(Cc3ccc4c5c(c(=O)[nH]c4c3)COC5)CC2)c(C)n1 [Example 4, 7-((4-(2-methyl-6-(methylcarbamoyl)pyridin-3-yl)piperazin-1-yl)methyl)-3,5-dihydrofuro[3,4-c]quinolin-4(1H)-one]",1.59 nM,4.22 nM,188 nM
"CNC(=O)c1ccc(N2CCN(Cc3ccc4c(c3)[nH]c(=O)c3cccn34)CC2)c(C)n1 [Example 24, 7-((4-(2-methyl-6-(methylcarbamoyl)pyridin-3-yl)piperazin-1-yl)methyl)pyrrolo[1,2-a]quinoxalin-4(5H)-one]",0.83 nM,0.78 nM,31.5 nM
"CNC(=O)c1ccc(N2CCN(Cc3ccc4c(c3)[nH]c(=O)c3ccnn34)CC2)c(C)n1 [Example 28, 7-((4-(2-methyl-6-(methylcarbamoyl)pyridin-3-yl)piperazin-1-yl)methyl)pyrazolo[1,5-a]quinoxalin-4(5H)-one]",0.77 nM,0.98 nM,> 3000 nM
"CNC(=O)c1ccc(N2CCN(Cc3ccc4c(c3)[nH]c(=O)c3cccn34)CC2)c(Cl)n1 [Example 35, 7-((4-(2-chloro-6-(methylcarbamoyl)pyridin-3-yl)piperazin-1-yl)methyl)pyrrolo[1,2-a]quinoxalin-4(5H)-one]",0.81 nM,0.39 nM,26.3 nM
"CNC(=O)c1ccc(N2CCN(Cc3ccc4c(c3)[nH]c(=O)c3ccnn34)CC2)c(F)n1 [Example 36, 7-((4-(2-fluoro-6-(methylcarbamoyl)pyridin-3-yl)piperazin-1-yl)methyl)pyrazolo[1,5-a]quinoxalin-4(5H)-one]",0.44 nM,1.11 nM,41.4 nM
"CNC(=O)c1ccc(N2CCN(Cc3ccc4c(c3)[nH]c(=O)c3ccnn34)CC2)c(Cl)n1 [Example 37, 7-((4-(2-chloro-6-(methylcarbamoyl)pyridin-3-yl)piperazin-1-yl)methyl)pyrazolo[1,5-a]quinoxalin-4(5H)-one]",0.47 nM,1.07 nM,46.5 nM
"CNC(=O)c1ccc(N2CCN(Cc3ccc4c(c3)[nH]c(=O)c3cncn34)CC2)c(F)n1 [Example 38, 7-((4-(2-fluoro-6-(methylcarbamoyl)pyridin-3-yl)piperazin-1-yl)methyl)imidazo[1,5-a]quinoxalin-4(5H)-one]",0.3 nM,4.06 nM,59.9 nM
"CNC(=O)c1ccc(N2CCN(Cc3cc(F)c4c(c3)[nH]c(=O)c3cccn34)CC2)c(C)n1 [Example 40, 7-((4-(2-methyl-6-(methylcarbamoyl)pyridin-3-yl)piperazin-1-yl)methyl)-9-fluoropyrrolo[1,2-a]quinoxalin-4(5H)-one]",1.54 nM,1.15 nM,38.7 nM
"CNC(=O)c1ccc(N2CCN(Cc3cc(F)c4c(c3)[nH]c(=O)c3ccnn34)CC2)c(F)n1 [Example 44, 7-((4-(2-fluoro-6-(methylcarbamoyl)pyridin-3-yl)piperazin-1-yl)methyl)-9-fluoropyrazolo[1,5-a]quinoxalin-4(5H)-one]",1.76 nM,2.17 nM,318 nM
"CNC(=O)c1ccc(N2CCN(Cc3ccc4c(c3)[nH]c(=O)c3ccc(C)n34)CC2)c(C)n1 [Example 54, 7-((4-(2-methyl-6-(methylcarbamoyl)pyridin-3-yl)piperazin-1-yl)methyl)-1-methylpyrrolo[1,2-a]quinoxalin-4(5H)-one]",1.32 nM,1.85 nM,12.7 nM
"CNC(=O)c1ccc(N2CCN(Cc3ccc4c(c3)[nH]c(=O)c3c(C)ccn34)CC2)c(C)n1 [Example 56, 7-((4-(2-methyl-6-(methylcarbamoyl)pyridin-3-yl)piperazin-1-yl)methyl)-3-methylpyrrolo[1,2-a]quinoxalin-4(5H)-one]",2.32 nM,0.65 nM,37.9 nM
"CNC(=O)c1ccc(N2CCN(Cc3ccc4c(c3)[nH]c(=O)c3cc(C)nn34)CC2)c(C)n1 [Example 57, 7-((4-(2-methyl-6-(methylcarbamoyl)pyridin-3-yl)piperazin-1-yl)methyl)-2-methylpyrazolo[1,5-a]quinoxalin-4(5H)-one]",1.77 nM,1.43 nM,67.9 nM
"Cc1nc(C(=O)NC2CC2)ccc1N1CCN(Cc2ccc3c(c2)[nH]c(=O)c2cccn23)CC1 [Example 59, 7-((4-(2-methyl-6-(cyclopropylcarbamoyl)pyridin-3-yl)piperazin-1-yl)methyl)pyrrolo[1,2-a]quinoxalin-4(5H)-one]",1.39 nM,0.99 nM,21.9 nM
"Cc1nc(C(=O)NC2CC2)ccc1N1CCN(Cc2ccc3c(c2)[nH]c(=O)c2ccnn23)CC1 [Example 62, 7-((4-(2-methyl-6-(cyclopropylcarbamoyl)pyridin-3-yl)piperazin-1-yl)methyl)pyrazolo[1,5-a]quinoxalin-4(5H)-one]",0.29 nM,3.42 nM,150 nM
"Cc1nc(C(=O)NC2CC2)ccc1N1CCN(Cc2cc(F)c3c(c2)[nH]c(=O)c2cccn23)CC1 [Example 66, 7-((4-(2-methyl-6-(cyclopropylcarbamoyl)pyridin-3-yl)piperazin-1-yl)methyl)-9-fluoropyrrolo[1,2-a]quinoxalin-4(5H)-one]",1.63 nM,1.66 nM,66.1 nM
"O=C(NC1CC1)c1ccc(N2CCN(Cc3cc(F)c4c(c3)[nH]c(=O)c3cccn34)CC2)c(F)n1 [Example 67, 7-((4-(2-fluoro-6-(cyclopropylcarbamoyl)pyridin-3-yl)piperazin-1-yl)methyl)-9-fluoropyrrolo[1,2-a]quinoxalin-4(5H)-one]",2.02 nM,2.11 nM,48.2 nM
"O=C(NC1CC1)c1ccc(N2CCN(Cc3cc(F)c4c(c3)[nH]c(=O)c3cccn34)CC2)c(Cl)n1 [Example 68, 7-((4-(2-chloro-6-(cyclopropylcarbamoyl)pyridin-3-yl)piperazin-1-yl)methyl)-9-fluoropyrrolo[1,2-a]quinoxalin-4(5H)-one]",1.61 nM,2.92 nM,90.1 nM
"CNC(=O)c1ccc(N2CCN(Cc3ccc4c(c3)[nH]c(=O)c3cc(C)nn34)CC2)c(F)n1 [Example 69, 7-((4-(2-fluoro-6-(methylcarbamoyl)pyridin-3-yl)piperazin-1-yl)methyl)-2-methylpyrazolo[1,5-a]quinoxalin-4(5H)-one]",2.32 nM,1.08 nM,49.9 nM
"CNC(=O)c1ccc(N2CCN(Cc3ccc4c(c3)[nH]c(=O)c3cc(C)nn34)CC2)c(Cl)n1 [Example 70, 7-((4-(2-chloro-6-(methylcarbamoyl)pyridin-3-yl)piperazin-1-yl)methyl)-2-methylpyrazolo[1,5-a]quinoxalin-4(5H)-one]",1.37 nM,1.41 nM,103 nM
"CNC(=O)c1ccc(N2CCN(Cc3ccc4c(c3)[nH]c(=O)c3c(C)cnn34)CC2)c(F)n1 [Example 71, 7-((4-(2-fluoro-6-(methylcarbamoyl)pyridin-3-yl)piperazin-1-yl)methyl)-3-methylpyrazolo[1,5-a]quinoxalin-4(5H)-one]",1.35 nM,0.77 nM,66.4 nM
"CNC(=O)c1ccc(N2CCN(Cc3ccc4c(c3)[nH]c(=O)c3c(C)cnn34)CC2)c(Cl)n1 [Example 72, 7-((4-(2-chloro-6-(methylcarbamoyl)pyridin-3-yl)piperazin-1-yl)methyl)-3-methylpyrazolo[1,5-a]quinoxalin-4(5H)-one]",1.12 nM,2.09 nM,110 nM
"CNC(=O)c1ccc(N2CCN(Cc3cc(F)c4c(c3)[nH]c(=O)c3cc(C)nn34)CC2)c(F)n1 [Example 73, 7-((4-(2-fluoro-6-(methylcarbamoyl)pyridin-3-yl)piperazin-1-yl)methyl)-9-fluoro-2-methylpyrazolo[1,5-a]quinoxalin-4(5H)-one]",1.96 nM,1.77 nM,78.1 nM
"CNC(=O)c1ccc(N2CCN(Cc3cc(F)c4c(c3)[nH]c(=O)c3cc(C)nn34)CC2)c(Cl)n1 [Example 74, 7-((4-(2-chloro-6-(methylcarbamoyl)pyridin-3-yl)piperazin-1-yl)methyl)-9-fluoro-2-methylpyrazolo[1,5-a]quinoxalin-4(5H)-one]",1.52 nM,1.58 nM,186 nM
"CNC(=O)c1ccc(N2CCN(Cc3cc(F)c4c(c3)[nH]c(=O)c3c(C)cnn34)CC2)c(F)n1 [Example 76, 7-((4-(2-fluoro-6-(methylcarbamoyl)pyridin-3-yl)piperazin-1-yl)methyl)-9-fluoro-3-methylpyrazolo[1,5-a]quinoxalin-4(5H)-one]",2.1 nM,1.37 nM,64.6 nM
"CNC(=O)c1ccc(N2CCN(Cc3cc(F)c4c(c3)[nH]c(=O)c3c(C)cnn34)CC2)c(Cl)n1 [Example 77, 7-((4-(2-chloro-6-(methylcarbamoyl)pyridin-3-yl)piperazin-1-yl)methyl)-9-fluoro-3-methylpyrazolo[1,5-a]quinoxalin-4(5H)-one]",1.51 nM,2.39 nM,241 nM
"CNC(=O)c1ccc(N2CCN(Cc3cc(F)c4c(c3)[nH]c(=O)c3c(C)cnn34)CC2)c(C)n1 [Example 78, 7-((4-(2-methyl-6-(methylcarbamoyl)pyridin-3-yl)piperazin-1-yl)methyl)-9-fluoro-3-methylpyrazolo[1,5-a]quinoxalin-4(5H)-one]",1.38 nM,1 nM,153 nM
